Data taken from patent US20250144067A1, “PERSONALIZED STARVATION THERAPY FOR CANCER” (Faeth Therapeutics, Inc., priority 2021, published 2025).
Where a name gives a salt, the structure may show the parent alone.

Legend:
[1] = tested on: NCI-H292 lung cancer cells; assay: FDA drug screening, complete media vs cholesterol-free media without statin (TABLE 1); type: cell-based, human
[2] = tested on: NCI-H292 lung cancer cells; assay: FDA drug screening, complete media vs cholesterol-free media with simvastatin (TABLE 2); type: cell-based, human; details: for Cholesterol-free media + simvastatin (0.04 μM) / Complete Media: NCI-H292 cells
[3] = Complete minus Cholesterol-free, greater than 0 enhanced anti-cancer activity, about 0 neutral, below 0 antagonist
[4] = NCI-H292 cells, FDA drug library screen, cholesterol-free media without statin
[5] = NCI-H292 cells, FDA drug library screen, complete media
[6] = drug in cholesterol-free media with simvastatin 0.04 μM
[7] = complete media vs cholesterol-free media + simvastatin (0.04 μM), >0 enhanced anti-cancer activity, about 0 neutral, <0 antagonist
[8] = Complete minus Cholesterol-free, >0 enhanced anti-cancer activity, about 0 neutral, <0 antagonist
[9] = NCI-H292 cells, cholesterol-free media without statin, FDA drug library screen
[10] = NCI-H292 cells, complete media, FDA drug library screen
[11] = Complete minus Cholesterol-free, greater than 0 enhanced anti-cancer activity, about 0 neutral, below 0 antagonists
[12] = NCI-H292 cells in cholesterol-free media without statin
[13] = NCI-H292 cells in complete media
[14] = cholesterol-free media with simvastatin 0.04 μM, FDA drug library screen (TABLE 2)
[15] = complete media, FDA drug library screen (TABLE 2)
[16] = complete media minus cholesterol-free media + simvastatin (0.04 μM), >0 enhanced anti-cancer activity, about 0 neutral, <0 antagonist
[17] = NCI-H292 cells, cholesterol-free media without statin
[18] = FDA library drug in cholesterol-free media with simvastatin 0.04 μM
[19] = complete media vs cholesterol-free media + simvastatin (0.04 μM), […]
[20] = cholesterol-free media with simvastatin 0.04 μM, cell growth value in FDA drug screen
[21] = complete media, cell growth value in FDA drug screen
[22] = complete media minus cholesterol-free media + simvastatin, >0 enhanced anti-cancer activity, about 0 neutral, <0 antagonist
[23] = complete vs cholesterol-free media, greater than 0 enhanced anti-cancer activity, about 0 neutral, below 0 antagonists
[24] = FDA drug library screen, cholesterol-free media with simvastatin 0.04 μM
[25] = FDA drug library screen, complete media
[26] = FDA library drug in complete media

Compound: CCOc1cc(CC(=O)N[C@@H](CC(C)C)c2ccccc2N2CCCCC2)ccc1C(=O)O [Repaglinide]
- Difference [1, 3]: −0.08
- Cholesterol-free [1, 4]: 1.088
- Complete [1, 5]: 1.008
- Cholesterol-free media + simvastatin (0.04 μM) [2, 6]: 0.996
- Complete Media ([2]; drug in complete media): 0.8125
- Difference [2, 7]: −0.18

Compound: Gadobutrol
- Difference [1, 8]: 0.01
- Cholesterol-free [1, 9]: 0.939
- Complete [1, 10]: 0.9511
- Cholesterol-free media + simvastatin (0.04 μM) [2, 6]: 1.273
- Complete Media ([2]; drug in complete media): 1.022
- Difference [2, 7]: −0.25

Compound: Sildenafil (citrate)
- Difference [1, 11]: −0.63
- Cholesterol-free [1, 12]: 1.504
- Complete [1, 13]: 0.8696
- Cholesterol-free media + simvastatin (0.04 μM) [2, 14]: 0.9766
- Complete Media [2, 15]: 0.9106
- Difference [2, 16]: −0.07

Compound: Atosiban (acetate)
- Cholesterol-free [1, 17]: 1.199
- Complete ([1]; NCI-H292 cells, complete media): 0.8162
- Difference ([1]; complete vs cholesterol-free media, […]): −0.38
- Cholesterol-free media + simvastatin (0.04 μM) [2, 18]: 1.587
- Difference [2, 19]: −0.52

Compound: COC1=C(OC)C(=O)C(CCCCCCCCCCO)=C(C)C1=O [Idebenone]
- Difference [1, 8]: −0.21
- Cholesterol-free [1, 17]: 1.239
- Complete ([1]; NCI-H292 cells, complete media): 1.029
- Cholesterol-free media + simvastatin (0.04 μM) [2, 20]: 1.049
- Complete Media [2, 21]: 1.125
- Difference [2, 22]: 0.08

Compound: CN(C)[C@@H]1C(O)=C(C(N)=O)C(=O)[C@@]2(O)C(O)=C3C(=O)c4c(O)cccc4[C@@](C)(O)[C@H]3C[C@@H]12 [Tetracycline (hydrochloride)]
- Cholesterol-free [1, 17]: 1.387
- Complete ([1]; NCI-H292 cells, complete media): 0.93
- Difference [1, 23]: −0.46
- Cholesterol-free media + simvastatin (0.04 μM) [2, 14]: 0.7005
- Complete Media [2, 15]: 0.7002
- Difference [2, 16]: 0.00

Compound: COC(=O)Nc1nc2cc(C(=O)c3ccc(F)cc3)ccc2[nH]1 [Flubendazole]
- Cholesterol-free [1, 9]: 0.549
- Complete [1, 10]: 1.107
- Difference ([1]; complete vs cholesterol-free media, >0 enhanced anti-cancer activity, about 0 neutral, <0 antagonist): 0.56
- Cholesterol-free media + simvastatin (0.04 μM) [2, 14]: 1.122
- Complete Media [2, 15]: 1.079
- Difference [2, 16]: −0.04

Compound: Cc1cc(C2CCCCC2)n(O)c(=O)c1 [Ciclopirox (olamine)]
- Difference [1, 3]: −0.13
- Cholesterol-free [1, 4]: 0.3971
- Complete [1, 5]: 0.2691
- Cholesterol-free media + simvastatin (0.04 μM) [2, 20]: 0.5971
- Complete Media [2, 21]: 0.715
- Difference [2, 22]: 0.12

Compound: Cc1ccsc1C(=CCCN1CCC[C@@H](C(=O)O)C1)c1sccc1C [Tiagabine (hydrochloride)]
- Difference [1, 8]: −0.25
- Cholesterol-free [1, 17]: 1.406
- Complete ([1]; NCI-H292 cells, complete media): 1.159
- Cholesterol-free media + simvastatin (0.04 μM) [2, 20]: 0.8465
- Complete Media [2, 21]: 0.9752
- Difference [2, 22]: 0.13

Compound: Cc1cc(C)nc(NS(=O)(=O)c2ccc(N)cc2)n1 [Sulfamethazine]
- Difference [1, 11]: −0.77
- Cholesterol-free [1, 12]: 1.661
- Complete [1, 13]: 0.8945
- Cholesterol-free media + simvastatin (0.04 μM) [2, 24]: 1.21
- Complete Media [2, 25]: 1.052
- Difference [2, 7]: −0.16

Compound: CC[C@H](C)[C@H]1O[C@]2(CC[C@@H]1C)C[C@@H]1C[C@@H](C/C=C(\C)[C@@H](O[C@H]3C[C@H](OC)[C@@H](O[C@H]4C[C@H](OC)[C@@H](O)[C@H](C)O4)[C@H](C)O3)[C@@H](C)/C=C/C=C3\CO[C@@H]4[C@H](O)C(C)=C[C@@H](C(=O)O1)[C@]34O)O2 [Ivermectin]
- Difference ([1]; Complete minus Cholesterol-free, […]): 0.00
- Cholesterol-free [1, 9]: 0.1454
- Complete [1, 10]: 0.1503
- Cholesterol-free media + simvastatin (0.04 μM) [2, 18]: 1.074
- Complete Media [2, 26]: 0.4557
- Difference [2, 19]: −0.62

Compound: CC(C)(C)c1ccc(C(=O)CCCN2CCC(OC(c3ccccc3)c3ccccc3)CC2)cc1 [Ebastine]
- Difference [1, 11]: −0.60
- Cholesterol-free [1, 12]: 1.238
- Complete [1, 13]: 0.6382
- Cholesterol-free media + simvastatin (0.04 μM) [2, 24]: 0.2638
- Complete Media [2, 25]: 1.066
- Difference [2, 22]: 0.80

Compound: CC(C)(C)c1ccc(C(O)CCCN2CCC(C(O)(c3ccccc3)c3ccccc3)CC2)cc1 (stereo not drawn) [Terfenadine]
- Cholesterol-free [1, 17]: 1.145
- Complete ([1]; NCI-H292 cells, complete media): 0.8219
- Difference [1, 23]: −0.32
- Cholesterol-free media + simvastatin (0.04 μM) [2, 20]: 0.9762
- Complete Media [2, 21]: 1.013
- Difference [2, 22]: 0.04

Compound: C#C[C@]1(O)C=C[C@H]2[C@@H]3CCC4=CC(=O)CC[C@@H]4[C@H]3CC[C@@]21CC [Gestodene]
- Difference [1, 3]: −0.11
- Cholesterol-free [1, 4]: 1.134
- Complete [1, 5]: 1.023
- Cholesterol-free media + simvastatin (0.04 μM) [2, 18]: 1.543
- Complete Media [2, 26]: 1.003
- Difference [2, 7]: −0.54

Compound: CC(C)C[C@H](NC(=O)[C@@H](O)[C@H](N)Cc1ccccc1)C(=O)O [Bestatin (hydrochloride)]
- Cholesterol-free [1, 17]: 1.217
- Complete ([1]; NCI-H292 cells, complete media): 0.9083
- Difference [1, 23]: −0.31
- Cholesterol-free media + simvastatin (0.04 μM) [2, 24]: 1.299
- Difference [2, 7]: −0.15

Compound: O=C(CCCc1ccccc1)OCC(COC(=O)CCCc1ccccc1)OC(=O)CCCc1ccccc1 [Glycerol phenylbutyrate]
- Difference [1, 3]: −0.17
- Cholesterol-free [1, 4]: 1.054
- Complete [1, 5]: 0.8817
- Cholesterol-free media + simvastatin (0.04 μM) [2, 18]: 1.737
- Complete Media [2, 26]: 1.34
- Difference [2, 7]: −0.40

Compound: CC1(C)OC[C@@H](COC(=O)CCc2ccc(OC[C@@H](O)CNCCNC(=O)N3CCOCC3)cc2)O1 [Landiolol (hydrochloride)]
- Cholesterol-free [1, 17]: 1.352
- Complete ([1]; NCI-H292 cells, complete media): 0.8842
- Difference [1, 23]: −0.47
- Cholesterol-free media + simvastatin (0.04 μM) [2, 24]: 1.311
- Difference [2, 7]: −0.14

Compound: CC[C@H]1CN2CC[C@H]1C[C@@H]2[C@@H](O)c1ccnc2ccc(OC)cc12 [Hydroquinidine]
- Difference [1, 8]: 0.06
- Cholesterol-free [1, 9]: 0.8191
- Complete [1, 10]: 0.8815
- Cholesterol-free media + simvastatin (0.04 μM) [2, 18]: 1.791
- Complete Media [2, 26]: 1.518
- Difference [2, 7]: −0.27

Compound: Cc1cn(-c2cc(NC(=O)c3ccc(C)c(Nc4nccc(-c5cccnc5)n4)c3)cc(C(F)(F)F)c2)cn1 [Nilotinib]
- Cholesterol-free [1, 17]: 1.511
- Complete ([1]; NCI-H292 cells, complete media): 1.113
- Difference [1, 23]: −0.40
- Cholesterol-free media + simvastatin (0.04 μM) [2, 20]: 0.9437
- Complete Media [2, 21]: 0.9791
- Difference [2, 22]: 0.04

Compound: C[C@@H]1CC(=O)NN=C1c1ccc(NN=C(C#N)C#N)cc1 [Levosimendan]
- Difference [1, 8]: −0.06
- Cholesterol-free [1, 9]: 1.195
- Complete [1, 10]: 1.131
- Cholesterol-free media + simvastatin (0.04 μM) [2, 24]: 1.165
- Complete Media [2, 25]: 1.044
- Difference [2, 7]: −0.12

Compound: Cn1c(=O)c2[nH]cnc2n(C)c1=O [Aminophylline]
- Difference [1, 3]: −0.14
- Cholesterol-free [1, 4]: 0.9006
- Complete [1, 5]: 0.7581
- Cholesterol-free media + simvastatin (0.04 μM) [2, 14]: 0.918
- Complete Media [2, 15]: 0.8588
- Difference [2, 16]: −0.06

Compound: CC(C)(C)NC(=O)N[C@H](C(=O)N1C[C@H]2[C@@H]([C@H]1C(=O)NC(CC1CCC1)C(=O)C(N)=O)C2(C)C)C(C)(C)C (stereo partly drawn) [Boceprevir]
- Difference [1, 8]: −0.30
- Cholesterol-free [1, 17]: 1.3
- Complete ([1]; NCI-H292 cells, complete media): 1.001
- Cholesterol-free media + simvastatin (0.04 μM) [2, 24]: 1.494
- Complete Media [2, 25]: 1.414
- Difference [2, 7]: −0.08
